Experimental data as given in publication PMC4667271, “Discovery of a Novel Inhibitor of the Protein Tyrosine Phosphatase Shp2” (Scientific Reports, 2015).
Positions count from the first letter of the chain named.

Legend:
[1] = tested on: EGF-induced Ras activation in HEK293T cells; assay: Ras activation assay (GST-RBD pull-down), HEK293T; type: cell-based, human; conditions: Fumos 20 μM
Protocol: Active Ras was detected by use of the RBD of raf-1 fused to glutathione S-transferase (GST) as described previously. Cells were lysed in MLB buffer (25 mM Hepes, 150 mM NaCl, 1% Nonidet P-40, 0.25% sodium deoxycholate, 10% glycerol, 25 mM NaF, 1 mM Na3VO4, 10 mM MgCl2, 1 mM EDTA, pH 7.5) supplemented with complete EDTA-free protease inhibitor mixture. Total 500 μg cell lysate was incubated with 10–20 μg of GST-RBD bound beads(Merck) overnight at 4 °C. The beads were pelleted by centrifugation and washed three times with MLB buffer. The beads were boiled in SDS loading buffer and subjected to electrophoresis, followed by immunoblotting with an anti-Ras antibody (Santa Cruz Biotechnology).

Shp2 = biological target: T1, Shp2 (Homo sapiens, UniProt Q06124); assay: Irreversibility assessment (dilution and excess substrate); type: biochemical; conditions: preincubated 30 min, then 40-fold substrate
T1 sequence (Q06124 1-593): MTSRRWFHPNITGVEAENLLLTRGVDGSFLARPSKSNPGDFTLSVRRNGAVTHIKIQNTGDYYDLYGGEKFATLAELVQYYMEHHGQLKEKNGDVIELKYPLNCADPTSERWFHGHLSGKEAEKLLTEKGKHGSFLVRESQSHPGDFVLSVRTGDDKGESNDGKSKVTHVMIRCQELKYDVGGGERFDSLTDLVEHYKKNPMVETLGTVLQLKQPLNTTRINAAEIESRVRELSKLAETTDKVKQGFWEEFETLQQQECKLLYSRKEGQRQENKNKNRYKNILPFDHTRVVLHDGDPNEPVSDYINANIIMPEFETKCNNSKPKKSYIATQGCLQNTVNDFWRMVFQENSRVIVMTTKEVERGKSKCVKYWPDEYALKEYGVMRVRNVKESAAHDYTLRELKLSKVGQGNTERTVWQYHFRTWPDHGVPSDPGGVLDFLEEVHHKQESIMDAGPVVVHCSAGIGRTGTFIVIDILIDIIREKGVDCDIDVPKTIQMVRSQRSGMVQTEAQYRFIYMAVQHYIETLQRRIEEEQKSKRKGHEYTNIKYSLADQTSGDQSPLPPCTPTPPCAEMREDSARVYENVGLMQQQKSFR
Protocol: Recombinant Shp2 was mixed with the inhibitor at a final concentration of 100-fold IC50 or with vehicle control (DMSO) respectively. Sodium orthovanadate was used as a positive control compound. After incubation at room temperature for 30 min, the Enzyme-inhibitor was diluted to one-fold and mixed with 40-fold pNPP ([…]) for enzymatic activity.

Shp2-Y279A = biological target: T2, Shp2-Y279A (Homo sapiens, UniProt Q06124, Y279A); assay: Surface plasmon resonance analysis, Shp2-Y279A; type: binding
T2 sequence (Q06124 1-593 Y279A): T1 sequence (Q06124 1-593) with Y279A
Protocol: One small molecule (10 mM) was spotted on the 3D sensor chip. Positive and negative controls on the chip were monitored for binding kinetics to verify immobilization. All experiments were performed using Plexera’s Plex Array SPRi instrumentation, visualized using Instrument Control software (ICS) and analyzed using Plexera Data Explorer software.
Proteins were injected in the following order: Shp2 full-length protein (12 nM, 36 nM, 108 nM, 324 nM), Shp2 Y279A protein (35 nM, 70 nM,140 nM, 280 nM, 560 nM). Each protein was injected at a flow rate of 1 μl/sec. The association duration was 200 sec and dissociation duration was 300 sec. Regeneration between injections was performed with 600 μl of 10 mM glycine-HCl, pH = 2.0. The data were analyzed by Plexera Data Explorer software.

[2] = tested on: Gab1-Shp2 association in MDA-MB-231 cells; assay: Gab1-Shp2 co-immunoprecipitation, MDA-MB-231; type: cell-based, human; conditions: Fumos alone
Protocol: Cells were washed with cold PBS twice and lysed in cell lysis buffer for 10 min on ice. Then the lytic cells were centrifugated with 13,000 g for 10 min at 4 °C. The supernatant was transferred to a fresh conical centrifuge tube on ice and added 1 μg of the appropriate control IgG, together with 20 μl of resuspended volume of Protein A/G PLUS-Agarose (Santa Cruz Biotechnology, CA), then incubated at 4 °C for 30 min. The pellet beads were centrifugated at 1,000 g for 5 min at 4 °C. The supernatant with approximately 100–500 μg total cellular protein was incubated with 2 μg primary antibody against Shp2 or Gab1 for 7 h at 4 °C. Then lysates containing protein-antibody complexes were incubated with 20 μl of Protein A/G PLUS-Agarose at 4 °C on a rotating device overnight. Immunoprecipitates were collected by centrifugation at 2,500 rpm and washed for 4 times with 1 ml lysis buffer, then suspended in the loading buffer, boiled, and analyzed by SDS-PAGE.
Figure S1. Fumos inhibits Gab1-Shp2 association in MDA-MB-231 cells.
MDA-MB-231 cells were serum-starved for 18 h, preincubated with or without Fumos (20 μM 24 h), and then treated with EGF (20 ng/ml, 5 min). Shp2 was immunoprecipitated from cell lysate supernatants. Immunoprecipitates were analyzed by immunoblotting with antibodies to Gab1, pY and Shp2.
(1 picture or pasted object on this page, not shown here)

[3] = SPR, Fumos immobilized, Shp2-Y279A injected

Structure (SMILES): CC[C@@H](C)C[C@@H](C)/C=C(C)/C=C/C=C/C=C(\C)C(=O)c1c(O)c(-c2ccc(O)cc2)cn(O)c1=O [Fumos, Fumosorinone]
- EGF-induced endogenous Ras activation [1]: inhibited
- recovery of Shp2 enzyme activity after dilution and excess substrate (reversibility) (Shp2): recovered
- affinity of Shp2-Y279A relative to Shp2-WT (Shp2-Y279A; SPR KD comparison): nine-fold less affinity
- Ka (association rate) (Shp2-Y279A; [3]): 5.06 × 10^4 M^−1 S^−1
- Kd (Shp2-Y279A; [3]): 368 nM
- Kd (dissociation rate) (Shp2-Y279A; [3]): 1.86 × 10^−2 S^−1
- Gab1-Shp2 association without EGF [2]: induces Gab1-Shp2 association
